Results reported in the METLIN SMRT retention time set (Domingo-Almenara et al. 2019).

Experiment: gradient 5% acetonitrile 3 min, to 50% in 2 min, to 85% in 15 min, held 3 min, 100 µL/min
Conditions: column: Zorbax Extend-C18 2.1 x 50 mm; eluents: water / acetonitrile, 0.1% formic acid
Method in brief: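 Values are retention times taken from adduct peaks that software picked and an analyst inspected. The pure standards were run as mixtures of ~100 molecules on HPLC linked to a quadrupole time-of-flight mass spectrometer, in positive and negative ionization mode. A Zorbax Extend-C18 column (2.1 × 50 mm, 1.8 μm) was used at 100 μL/min with water and acetonitrile, each including 0.1% formic acid.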

SMILES	RP-LC retention time [s]
Cc1cc(SCC(=O)N2CCCc3ccccc32)nc(=O)[nH]1	677
O=C(CSc1nccc(N2CCC(Cc3ccccc3)CC2)n1)NCCCc1ccccc1	906
Cc1ccc(-c2noc(Cn3ccnc3C)n2)cc1C	670
Cc1cc(C)c(CNC(=O)c2ccc3c(c2)CC(=O)N3C)c(C)c1	830
CCN1CCN(CCNC(=O)c2cc(=O)n3c(nc4ccccc43)s2)CC1	604
COc1ccccc1NC(=O)c1ccc(Br)cc1F	1070
COc1ccc(-c2nnc(-c3cc(S(=O)(=O)N4CCCC4)ccc3Cl)o2)cc1	1040
O=C(NCc1ccco1)N1CCCn2nc(-c3cccs3)cc2C1	752
CCCCCCOC(=O)[C@@]1(O)CC2O[C@]1(C)n1c3ccccc3c3c4c(c5c6ccccc6n2c5c31)C(=O)NC4	1230
CCc1ccc(NC(=O)N2CCC(n3cnc4ccc(Cl)cc4c3=O)CC2)cc1	921
COc1ccccc1NC(=O)N1CCC(CNS(=O)(=O)c2cc(C)ccc2C)CC1	735
Cc1ccc(-c2cc3c4nnc(CCC(=O)N5CCN(C6CCCCC6)CC5)n4ccn3n2)cc1C	682
c1cncc(-c2nc(-c3ccc4c(c3)nnn4CCN3CCCCC3)no2)c1	614
CN(CCNC(=O)c1ncoc1-c1ccco1)Cc1ccccc1	630
CC(NC(=O)c1ccc(NC(=O)C2CC2)cc1N1CCCCCC1)c1ccccn1 (stereo unspecified)	633
O=C([C@@H]1C[C@H](F)CN1C(=O)COc1ccc(F)cc1)N1CCCCC1	714
CC(=O)N1CCc2cc(-c3ccc(C(=O)N4CCC(C)CC4)cc3)ccc21	889
COc1ccccc1CNC(=O)c1c(O)c2cccnc2[nH]c1=O	933
COC1C(=O)N(c2cccc(F)c2)C12CCN(C(=O)C1(c3ccccc3)CC1)CC2 (stereo unspecified)	994
CC1CCCN(Cc2nc(Cn3ccn4nc(-c5ccc(F)cc5)cc4c3=O)no2)C1 (stereo unspecified)	687
CCCNC(=O)Cc1c(C)nn(-c2nc(-c3ccc(C)cc3)cs2)c1C	1070
CCOC(=O)c1c(C)[nH]c(CCC(=O)NCCc2cccs2)c1C	822

SMILES	RP-LC retention time [s]
Cc1ccsc1C(=O)NC1(c2nc(-c3cnccn3)no2)CCCCC1	806
CC(C)CN1Cc2ccccc2-n2ccnc2C12CCN(C(=O)C1CC1)CC2	648
COc1ccc(-n2nc(N3CCN(C(=O)CC4CCCC4)CC3)ccc2=O)cc1	800
Cn1cc(-c2nc(C(=O)NCc3cc(F)cc(F)c3)cs2)c2cccnc21	944
COc1ccccc1C(=O)N1CC(Oc2cccc(-c3nc(-c4ccccc4)no3)c2)C1	1130
CSc1ccc(NC(=O)Nc2c(-c3ccncc3)nc3ccccn23)cc1	618
COc1cccc(NC(=O)c2cc(C)n3nccc3n2)c1	874
O=C(NC1CCN(Cc2ccccc2)CC1)C1CCCN(C(=O)N2CCOc3ccccc32)C1 (stereo unspecified)	641
CCN1CCN(CCCNC(=O)CN2C(=O)C3CCCCN3c3ccc(C(=O)N(C)C)cc32)CC1 (stereo unspecified)	579
CCOc1ccc(N2CC(c3nc(-c4cccc(C)c4)no3)CC2=O)cc1 (stereo unspecified)	1050
O=C(Cn1ncc2c(N3CCN(c4ccccn4)CC3)ncnc21)Nc1ccc(F)cc1F	615
O=C(c1cc(-c2ccncc2)n[nH]1)N1CCCC(C(=O)N2CCN(C(=O)c3ccco3)CC2)C1 (stereo unspecified)	556
Cc1ccc(NC(=O)N2CC(n3ccnc3)C2)cc1C	604
CCCNC(=O)CCc1nc2ccccc2n(CC(=O)Nc2c(C)cccc2CC)c1=O	810
COc1cccc(NC(=O)Cn2c(C)nc3c(sc4nc(-c5ccccc5)ccc43)c2=O)c1	1090
Cc1ccc(C(=O)CC2(O)C(=O)Nc3ccccc32)cc1 (stereo unspecified)	704
CSc1cccc2sc(Nc3nc(C)c(C(C)=O)s3)nc12	842
Cc1[nH]c(C(=O)N2CCCC(C(=O)NCC3CCCO3)C2)c(C)c1C(=O)OC(C)C (stereo unspecified)	701
O=C(NC1CCCCC1N1C(=O)CSC1=O)c1cc(-c2ccc(F)cc2)n[nH]1 (stereo unspecified)	762
Cc1nc(-c2csc(S(=O)(=O)N3CCC(C(=O)N4CCc5ccccc54)CC3)c2)no1	595
O=C(C1=C2CCCN2c2ccccc2S1(=O)=O)N1CCN(c2ccc(F)cc2)CC1	796

Next, values leading:

RP-LC retention time [s]	SMILES
679	COCCN1CCn2cc(S(=O)(=O)Nc3ccccc3OC)cc2C1=O
1190	COc1ccc(-c2noc(-c3nnn4c3COC(c3ccc(C)cc3C)C4)n2)cc1OC (stereo unspecified)
797	CCC(C)NC(=O)C1CCN(S(=O)(=O)c2cc(-c3noc(C)n3)cs2)CC1 (stereo unspecified)
601	Cn1c(CCNC(=O)c2cccc(C#N)c2)nc2cccnc21
1190	O=c1cc(N2CCOCC2)oc2c(-c3cccc4c3sc3ccccc34)cccc12
754	Cc1nnc(-c2cc(C)n(CC(=O)Nc3ccc(F)cc3)c2C)o1
709	O=C(c1ccco1)N1CCC(Cc2noc(C3CC3)n2)C1 (stereo unspecified)
704	CCOCCCNC(=O)c1ccc(CS(=O)c2ccccc2Cl)o1 (stereo unspecified)
887	Cc1ccc(-c2cn3c(CC(=O)NCCCc4ccccc4)csc3n2)cc1C
601	Cc1nnc(-c2ccc(S(=O)(=O)N3CCN(c4ccccn4)CC3)o2)o1
528	O=C(NC1CC1)[C@@H]1C[C@H](Oc2cccnc2)CN1C(=O)c1ccc2ncccc2c1
968	C=Cc1ccc(Cn2cc(S(=O)(=O)N3CCCCC3)ccc2=O)cc1
678	COc1ccc(CNC(=O)NCCC(O)C(C)(C)C)cc1 (stereo unspecified)
1100	Fc1ccc(Cn2cccc2-c2nc(-c3ccncc3)no2)cc1
1070	Cc1ccccc1NC(=O)N1CCN(c2nc3ccccc3nc2C(F)(F)F)CC1
808	COc1ccc(-c2noc(C3CCCN3C(=O)c3ccnn3C)n2)cc1 (stereo unspecified)
892	O=C(NCc1nc(-c2cccs2)no1)c1ccc(Br)cc1
632	O=C(NC1CC1)C1CCCN(c2ncnc3c2oc2ccccc23)C1 (stereo unspecified)
794	CCc1noc(C2CCCCN2CC(=O)NCCc2cccs2)n1 (stereo unspecified)
648	O=C(CNC(=O)Cc1ccccc1)NCc1[nH]nc2ccccc12
608	Cc1cccc(CN2CCN(CC(=O)N3CCN(Cc4ccccc4)CC3)C(=O)C2=O)c1
1040	C=CCn1c(=O)c2c(nc3n2CC(C)CN3c2cc(C)cc(C)c2)n(C)c1=O (stereo unspecified)
635	COCc1nncn1C1CCN(C(=O)c2cc(F)ccc2Cl)CC1
638	CCOC(=O)c1cccc(NC(=O)CCc2ccc3nc(CC)[nH]c3c2)c1

RP-LC retention time [s]	SMILES
560	CN1CCCC1c1nc(C2CN(C(=O)c3n[nH]c(=O)c4ccccc34)C2)no1 (stereo unspecified)
738	CCN1CCCCc2cc(C(=O)N(C)CC(=O)NC)sc21
929	COc1ccc(C(C)NC(=O)c2sc3ncccc3c2-n2cccc2)cc1OC (stereo unspecified)
730	O=C(CCn1cnc2cc(-c3noc(-c4ccccc4F)n3)ccc21)N1CCCC1
720	CC(C)N1C(=O)Cc2ccccc2C1C(=O)NCc1ccco1 (stereo unspecified)
651	Cc1cc(N2CCN(C(=O)Nc3ccccc3C)CC2)nc(N2CCCC2)n1
715	COC(=O)c1ccc(Cl)cc1NC(=O)N1CCCn2nc(-c3ccncc3)cc2C1
903	Cc1noc(-c2ccnc(-n3cnc(C(=O)NCc4ccc(Cl)cc4)c3)c2)n1
1070	Cc1ccc(-c2csc(Cc3nc(-c4ccc(F)cc4)no3)n2)c(C)c1
862	Cc1cc(C)cc(N2CCC(NC(=O)Nc3ccccc3)C2=O)c1 (stereo unspecified)
608	Nc1ccc(OC(=O)Nc2ccc(O)cc2)cc1
962	COc1ccc(N2CCN(c3cc(SCC(=O)Nc4ccc(OC)cc4OC)ncn3)CC2)cc1
1170	CCOc1ccc(-c2nc(-c3ccc4oc(C)nc4c3)no2)cc1OCC
915	COc1ccc(C2CC(=O)N(c3ccc(F)c(Cl)c3)C(=O)C2)cc1OC
832	COc1ccccc1N1C(=O)c2cccc3cccc(c23)C1=O
925	COc1ccc(C2=C(C)C(Nc3ccccc3OC)=NS2(=O)=O)cc1
664	Cc1nnc2sc(-c3cccs3)nn2c1=O
557	COc1ccc(N2CCN(Cc3cc(=O)c(OC)cn3CC(=O)NC(C)C)CC2)cc1
556	COc1ccc2sc(NCc3cccnc3)nc2c1
878	CN1CCN(CCCNC(=O)c2ccccc2NC(=O)C2=CSCCO2)CC1
1220	COc1ccc(NS(=O)(=O)c2cc(-c3nc(C(C)(C)C)cs3)cs2)cc1Cl
810	CN1C(=O)CCc2cc(NS(=O)(=O)c3ccc(Br)cc3)ccc21
784	Cc1cccc(Cn2c(=O)n(CCNC(=O)C3CCC3)c3ncccc32)c1
636	Cc1ccc(NC(=O)CSc2nc(=O)n(CCN(C)C)c3c2CCC3)cc1
